Assay results from ChEMBL document CHEMBL4602605, “Fluoroquinolones structural and medicinal developments (2013-2018): Where are we now?” (Bioorg Med Chem, 2019).
Converted amounts (≈) assume the structure as drawn.

Legend:
Assay type in all cases: functional
[1] = tested on: Enterococcus faecium; assay: Antimicrobial activity against Enterococcus faecium ATCC 700221 incubated for 18 to 24 hrs by two-fold serial dilution method
[2] = tested on: Staphylococcus epidermidis; assay: Antimicrobial activity against methicillin-susceptible Staphylococcus epidermidis ATCC 12228 incubated for 18 to 24 hrs by two-fold serial dilution method
[3] = tested on: Mycobacterium tuberculosis; assay: Antimicrobial activity against Mycobacterium tuberculosis H37Rv ATCC 27294 incubated for 7 days by microplate Alamar blue assay; settings: H37Rv ATCC 27294, 168 h
[4] = tested on: Staphylococcus aureus; assay: Antimicrobial activity against methicillin-resistant Staphylococcus aureus ATCC 33591 incubated for 18 to 24 hrs by two-fold serial dilution method
[5] = tested on: Staphylococcus aureus; assay: Antimicrobial activity against methicillin-susceptible Staphylococcus aureus ATCC 29213 incubated for 18 to 24 hrs by two-fold serial dilution method
[6] = tested on: Pseudomonas aeruginosa; assay: Antimicrobial activity against Pseudomonas aeruginosa PAO1 by CLSI-based broth microdilution method
[7] = tested on: Staphylococcus aureus; assay: Antimicrobial activity against Staphylococcus aureus ATCC 29213 by CLSI-based broth microdilution method
[8] = tested on: Escherichia coli; assay: Antimicrobial activity against tolC deficient Escherichia coli KD65 by CLSI-based broth microdilution method
[9] = Staphylococcus aureus, ATCC 29213, read-out: MIC
[10] = Escherichia coli, KD65, read-out: MIC

Structure (SMILES) | MIC [6] [mg/L] | MIC [7, 9] [mg/L] | MIC [8, 10] [mg/L] | further results
COc1c(N2CCN(C/C(C)=N/Nc3ccc(F)cc3)CC2)c(F)cc2c(=O)c(C(=O)O)cn(C3CC3)c12 |  |  |  | MIC [1]: 32 mg/L (≈ 60.9 µM); MIC [2]: 0.125 mg/L (≈ 0.238 µM); MIC [3]: 0.215 µM (≈ 0.113 µg/mL); MIC [4]: 0.125 mg/L (≈ 0.238 µM); MIC [5]: 0.125 mg/L (≈ 0.238 µM)
O=C(O)c1cn(C2CC2)c2c3c(c(F)cc2c1=O)N1CCCC1CC(O)C3O (stereo unspecified) | 8 (≈ 20.6 µM) | < 0.06 | < 0.06 | 
N[C@H]1CCN2c3c(F)cc4c(=O)c(C(=O)O)cn(C5CC5)c4c3CCC[C@H]12 | 0.29 (≈ 0.781 µM) | 0.015 (≈ 0.0404 µM) | 0.004 (≈ 0.0108 µM) | 
N[C@@H]1C[C@@H]2CC=Cc3c(c(F)cc4c(=O)c(C(=O)O)cn(C5CC5)c34)N2C1 | 1 (≈ 2.71 µM) | 0.25 (≈ 0.677 µM) | 0.125 (≈ 0.338 µM) | 
N[C@H]1C[C@H]2CCCc3c(c(F)cc4c(=O)c(C(=O)O)cn(C5CC5)c34)N2C1 | 0.5 (≈ 1.35 µM) | 0.5 (≈ 1.35 µM) | 0.015 (≈ 0.0404 µM) | 
O=C(O)c1cn(C2CC2)c2c3c(c(F)cc2c1=O)N1CCCC1CC=C3 (stereo unspecified) | 1 (≈ 2.82 µM) | 0.5 (≈ 1.41 µM) | 0.03 (≈ 0.0847 µM) | 
N[C@H]1CCN2c3c(F)cc4c(=O)c(C(=O)O)cn(C5CC5)c4c3C=CC[C@H]12 | 0.16 (≈ 0.433 µM) | 0.007 (≈ 0.0189 µM) | 0.0022 (≈ 0.00596 µM) | 
N[C@@H]1CCN2c3c(F)cc4c(=O)c(C(=O)O)cn(C5CC5)c4c3C=CC[C@H]12 | 0.38 (≈ 1.03 µM) | 0.045 (≈ 0.122 µM) | 0.06 (≈ 0.162 µM) | 
O=C(O)c1cn(C2CC2)c2c3c(c(F)cc2c1=O)N1CCCC1CNC3 (stereo unspecified) | 16 (≈ 44.8 µM) | 0.25 (≈ 0.7 µM) | 0.125 (≈ 0.35 µM) | 
COc1c(N2CCN(C/C(C)=N/Nc3ccc(F)c(Cl)c3)CC2)c(F)cc2c(=O)c(C(=O)O)cn(C3CC3)c12 |  |  |  | MIC [1]: 64 mg/L (≈ 114 µM); MIC [2]: 0.125 mg/L (≈ 0.223 µM); MIC [3]: 0.396 µM (≈ 0.222 µg/mL); MIC [4]: 0.125 mg/L (≈ 0.223 µM); MIC [5]: 0.125 mg/L (≈ 0.223 µM)
COc1c(N2CCN(C/C(C)=N/Nc3ccncc3)CC2)c(F)cc2c(=O)c(C(=O)O)cn(C3CC3)c12 |  |  |  | MIC [1]: > 64 mg/L; MIC [2]: 2 mg/L (≈ 3.93 µM); MIC [3]: 1.78 µM (≈ 0.905 µg/mL); MIC [4]: 2 mg/L (≈ 3.93 µM); MIC [5]: 2 mg/L (≈ 3.93 µM)
N[C@@H]1CCN2c3c(F)cc4c(=O)c(C(=O)O)cn(C5CC5)c4c3C=NC[C@H]12 | 1 (≈ 2.7 µM) | 4 (≈ 10.8 µM) | 0.125 (≈ 0.337 µM) | 
N[C@@H]1C[C@H]2CC=Cc3c(c(F)cc4c(=O)c(C(=O)O)cn(C5CC5)c34)N2C1 | 32 (≈ 86.6 µM) | 2 (≈ 5.41 µM) | 2 (≈ 5.41 µM) | 
N[C@@H]1CCN2c3c(F)cc4c(=O)c(C(=O)O)cn(C5CC5)c4c3CCC[C@H]12 | 0.125 (≈ 0.337 µM) | 0.03 (≈ 0.0808 µM) | 0.004 (≈ 0.0108 µM) | 
N[C@H]1C[C@@H]2CC=Cc3c(c(F)cc4c(=O)c(C(=O)O)cn(C5CC5)c34)N2C1 | 0.22 (≈ 0.596 µM) | ≤ 0.06 | 0.008 (≈ 0.0217 µM) | 
CO/N=C1/Cc2c(c(F)cc3c(=O)c(C(=O)O)cn(C4CC4)c23)N2CCCC2C1 (stereo unspecified) | 64 (≈ 160 µM) | 1 (≈ 2.5 µM) | 0.25 (≈ 0.626 µM) | 
N[C@H]1CCN2c3c(F)cc4c(=O)c(C(=O)O)cn(C5CC5)c4c3C=NC[C@H]12 | 0.5 (≈ 1.35 µM) | 2 (≈ 5.4 µM) | ≤ 0.06 | 
O=C(O)c1cn(C2CC2)c2c3c(c(F)cc2c1=O)N1CCCC1CCC3 (stereo unspecified) | 17 (≈ 47.7 µM) | 0.1 (≈ 0.281 µM) | 0.18 (≈ 0.505 µM) | 
C/N=C1/Cc2c(c(F)cc3c(=O)c(C(=O)O)cn(C4CC4)c23)N2CCCC2C1 (stereo unspecified) | > 32 | 0.25 (≈ 0.652 µM) | 0.06 (≈ 0.156 µM) | 
N[C@@H]1CCN2c3c(F)cc4c(=O)c(C(=O)O)cn(C5CC5)c4c3CNC[C@H]12 | 16 (≈ 43 µM) | 1 (≈ 2.69 µM) | 0.25 (≈ 0.671 µM) | 
N[C@H]1CCN2c3c(F)cc4c(=O)c(C(=O)O)cn(C5CC5)c4c3COC[C@H]12 | 0.25 (≈ 0.67 µM) | 0.0082 (≈ 0.022 µM) | 0.002 (≈ 0.00536 µM) | 
N[C@H]1C[C@H]2CC=Cc3c(c(F)cc4c(=O)c(C(=O)O)cn(C5CC5)c34)N2C1 | 64 (≈ 173 µM) | 8 (≈ 21.7 µM) | 16 (≈ 43.3 µM) | 
N[C@H]1C[C@@H]2CCCc3c(c(F)cc4c(=O)c(C(=O)O)cn(C5CC5)c34)N2C1 | 0.45 (≈ 1.21 µM) | 0.038 (≈ 0.102 µM) | 0.006 (≈ 0.0162 µM) | 
N[C@H]1C[C@H]2COCc3c(c(F)cc4c(=O)c(C(=O)O)cn(C5CC5)c34)N2C1 | 0.38 (≈ 1.02 µM) | 0.125 (≈ 0.335 µM) | 0.034 (≈ 0.0911 µM) | 
O=C1CC2CCCN2c2c(F)cc3c(=O)c(C(=O)O)cn(C4CC4)c3c2N1 (stereo unspecified) | > 64 | > 64 | 4 (≈ 10.8 µM) | 
O=C(O)c1cn(C2CC2)c2c3c(c(F)cc2c1=O)N1CCCC1C[S+]([O-])C3 (stereo in doubt; 440) | > 16 |  |  | MIC [7]: 1 mg/L (≈ 2.56 µM); MIC [8]: 16 mg/L (≈ 41 µM)
O=C(O)c1cn(C2CC2)c2c3c(c(F)cc2c1=O)N1CCCC1C[S+]([O-])C3 (stereo in doubt; 441) |  |  |  | MIC [7]: 4 mg/L (≈ 10.2 µM); MIC [8]: 1 mg/L (≈ 2.56 µM)
